We go through eight substances from US8372967B2, “Compounds and methods for modulating expression of GCCR” (Isis Pharmaceuticals, Inc., priority 2006, dated 2013).

For one series, the system named is rat DGAT2 mRNA. Nature of the series: Dose-dependent inhibition of DGAT2 in A10 cells (Tables 82, 83). The format is cell-based. As for the experimental part:
Additional short antisense compounds targeted to DGAT2 mRNA were tested in vitro in a dose-response experiment. A10 cells were prepared as described above and treated with 6.25, 12.5, 25.0, 50.0, 100.0, and 200.0 nM short antisense compounds to determine if DGAT2 inhibition occurs in a dose-dependent manner. […] Results are presented as percent inhibition, relative to untreated control cells.
Additional short antisense compounds targeted to DGAT2 mRNA were tested in vitro. A10 cells were prepared as described above and treated with 0.62, 1.85, 5.56, 16.67, 50.0, and 150.0 nM short antisense compounds to determine if DGAT2 inhibition occurs in a dose-dependent manner. DGAT2 mRNA was measured using quantitative real-time PCR, as described herein. […] Results are presented as percent inhibition of rat DGAT2, relative to untreated control cells.

For a further series, the system named is DGAT2 mRNA. Nature of the series: Antisense inhibition of DGAT2 in A10 cells, 75 nM (Table 81). Particulars: approximately 24 hours. The format is cell-based, rat. Here is the method:
Short antisense compounds targeted to a DGAT2 nucleic acid were tested for their effects on DGAT2 mRNA in vitro. Cultured A10 cells in a 96-well plate were treated with 75 nM of short antisense compound. After a treatment period of approximately 24 hours, RNA was isolated from the cells and DGAT2 mRNA levels were measured by quantitative real-time PCR, as described herein. DGAT2 mRNA levels were adjusted according to total RNA content as measured by RIBOGREEN®. Results are presented as percent inhibition of DGAT2, relative to untreated control cells in Table 81.

Strand notation (5' to 3'): a small letter for the sugar, then the base; units joined by * are phosphorothioate-linked, units joined directly phosphodiester-linked; [ ] holds rarer units or linkages, { } end groups; capitals alone tell only the bases. e = 2'-O-(2-methoxyethyl) (MOE); [5mC] = 5-methylcytosine; d = 2'-deoxy (DNA)

For “372508 (antisense eA*eG*eT*dT*d[5mC]*d[5mC]*dT*dG*dG*dT*dG*dG*dT*e[5mC]*eA*eG) [compound 372508]”, the “percent inhibition of rat DGAT2” value in the series on rat DGAT2 mRNA (0.62 nM (Table 83)) was 0%; in the series with rat DGAT2 mRNA (1.85 nM (Table 83)), 0%; with rat DGAT2 mRNA (5.56 nM (Table 83)), 6%; in the series on rat DGAT2 mRNA (16.67 nM (Table 83)) it was 14%; in the series with rat DGAT2 mRNA (50 nM (Table 83)), 39%; in the series with rat DGAT2 mRNA (150 nM (Table 83)) it was 71%. Also, the “% Control” value in the series with DGAT2 mRNA stood at 35 % Control.
As to “372516 (antisense eT*eA*e[5mC]*dA*dG*dA*dA*dG*dG*d[5mC]*dA*d[5mC]*d[5mC]*e[5mC]*eA*eG) [compound 372516]”, the “percent inhibition of rat DGAT2” value in the series with rat DGAT2 mRNA (0.62 nM (Table 83)) is reported as 1%; in the series on rat DGAT2 mRNA (1.85 nM (Table 83)) it was 10%; in the series with rat DGAT2 mRNA (5.56 nM (Table 83)), 0%; with rat DGAT2 mRNA (16.67 nM (Table 83)), 4%; in the series on rat DGAT2 mRNA (50 nM (Table 83)), 35%; in the series on rat DGAT2 mRNA (150 nM (Table 83)) it was 81%. Moreover, in the series on DGAT2 mRNA, the “% Control” value was 27 % Control.
Turning to “372524 (antisense eG*e[5mC]*e[5mC]*dA*dG*dG*d[5mC]*dA*dT*dG*dG*dA*dG*e[5mC]*eT*e[5mC]) [compound 372524]”, the “percent inhibition of rat DGAT2” value in the series with rat DGAT2 mRNA (0.62 nM (Table 83)) worked out at 7%; in the series on rat DGAT2 mRNA (1.85 nM (Table 83)) it was 0%; with rat DGAT2 mRNA (5.56 nM (Table 83)), 5%; in the series with rat DGAT2 mRNA (16.67 nM (Table 83)) it was 30%; with rat DGAT2 mRNA (50 nM (Table 83)) it was 68%; in the series with rat DGAT2 mRNA (150 nM (Table 83)), 91%. The “% Control” value in the series with DGAT2 mRNA was 21 % Control.
For “372530 (antisense eT*e[5mC]*eG*dG*d[5mC]*d[5mC]*d[5mC]*d[5mC]*dA*dG*dG*dA*dG*e[5mC]*e[5mC]*e[5mC]) [compound 372530]”, the “percent inhibition of rat DGAT2” value stood at 0% in the series on rat DGAT2 mRNA (0.62 nM (Table 83)); 2% in the series with rat DGAT2 mRNA (1.85 nM (Table 83)); 0% in the series on rat DGAT2 mRNA (5.56 nM (Table 83)); 10% with rat DGAT2 mRNA (16.67 nM (Table 83)); 38% in the series on rat DGAT2 mRNA (50 nM (Table 83)); 78% with rat DGAT2 mRNA (150 nM (Table 83)). The “% Control” value in the series on DGAT2 mRNA worked out at 35 % Control.
“372546 (antisense eT*eT*eG*dG*dT*d[5mC]*dT*dT*dG*dT*dG*dA*dT*eT*eG*eT) [compound 372546]”: the “percent inhibition of rat DGAT2” value in the series with rat DGAT2 mRNA (0.62 nM (Table 83)) amounted to 0%; in the series on rat DGAT2 mRNA (1.85 nM (Table 83)), 2%; in the series on rat DGAT2 mRNA (5.56 nM (Table 83)), 11%; in the series on rat DGAT2 mRNA (16.67 nM (Table 83)) it was 4%; with rat DGAT2 mRNA (50 nM (Table 83)) it was 48%; with rat DGAT2 mRNA (150 nM (Table 83)), 78%. Besides, the “% Control” value with DGAT2 mRNA amounted to 34 % Control.
With “372563 (antisense eA*eG*d[5mC]*d[5mC]*dA*dG*dG*dT*dG*dA*d[5mC]*dA*eG*eA) [compound 372563]”, the “percent inhibition of rat DGAT2” value stood at 0% in the series with rat DGAT2 mRNA (0.62 nM (Table 83)); 0% in the series with rat DGAT2 mRNA (1.85 nM (Table 83)); 0% in the series on rat DGAT2 mRNA (5.56 nM (Table 83)); 1% in the series on rat DGAT2 mRNA (16.67 nM (Table 83)); 4% in the series on rat DGAT2 mRNA (50 nM (Table 83)); 46% with rat DGAT2 mRNA (150 nM (Table 83)). For the same substance, the “% Control” value in the series on DGAT2 mRNA turned out to be 48 % Control.
In the case of “372578 (antisense eT*eG*dT*dG*dT*d[5mC]*dT*dT*d[5mC]*dA*d[5mC]*d[5mC]*eA*eG) [compound 372578]”, the “percent inhibition of rat DGAT2” value in the series with rat DGAT2 mRNA (0.62 nM (Table 83)) is on record as 0%; in the series with rat DGAT2 mRNA (1.85 nM (Table 83)) it was 0%; in the series with rat DGAT2 mRNA (5.56 nM (Table 83)) it was 0%; in the series with rat DGAT2 mRNA (16.67 nM (Table 83)), 2%; in the series on rat DGAT2 mRNA (50 nM (Table 83)) it was 7%; in the series on rat DGAT2 mRNA (150 nM (Table 83)), 42%. In addition, in the series on DGAT2 mRNA, the “% Control” value is 59 % Control.
“372580 (antisense eG*eG*dT*dT*dG*dT*dG*dT*dG*dT*d[5mC]*dT*eT*e[5mC]) [compound 372580]”: the “percent inhibition of rat DGAT2” value in the series on rat DGAT2 mRNA (0.62 nM (Table 83)) is given as 0%; in the series on rat DGAT2 mRNA (1.85 nM (Table 83)) it was 5%; in the series on rat DGAT2 mRNA (5.56 nM (Table 83)) it was 5%; in the series on rat DGAT2 mRNA (16.67 nM (Table 83)) it was 3%; in the series on rat DGAT2 mRNA (50 nM (Table 83)), 16%; in the series with rat DGAT2 mRNA (150 nM (Table 83)) it was 42%. The “% Control” value with DGAT2 mRNA is reported as 48 % Control.
